ChEMBL document CHEMBL1201862, “PubChem BioAssay data set” (2004)
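Exposure lasted 48 hours, with cells grown in 96-well plates and compounds tested at five concentrations. The concentration for 50% growth inhibition is given as GI50.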 Activity calls are given as the source filed them. No stated cut-off is given here; in the data, active = GI50 up to about 1.1 µM and inactive = higher.

How the values were obtained:
Experiment in all cases: growth of human tumour cells (NCI), 48 h
MDA-N = tested on: MDA-N
MCF7 = tested on: MCF7
OVCAR-5 = tested on: OVCAR-5
HOP-62 = tested on: HOP-62
NCI-H522 = tested on: NCI-H522
CAKI-1 = tested on: CAKI-1
OVCAR-4 = tested on: OVCAR-4
A549 = tested on: A549
UO-31 = tested on: UO-31
DU-145 = tested on: DU-145
OVCAR-3 = tested on: OVCAR-3
SNB-19 = tested on: SNB-19
RPMI-8226 = tested on: RPMI-8226
HCT-116 = tested on: HCT-116
NCI/ADR-RES = tested on: NCI/ADR-RES
SNB-75 = tested on: SNB-75
SF-295 = tested on: SF-295
ACHN = tested on: ACHN
EKVX = tested on: EKVX
OVCAR-8 = tested on: OVCAR-8

SMILES | GI50 (MDA-N) | GI50 (MCF7) | GI50 (OVCAR-5) | GI50 (HOP-62) | GI50 (NCI-H522) | GI50 (CAKI-1) | GI50 (OVCAR-4) | GI50 (A549) | GI50 (UO-31) | GI50 (DU-145) | GI50 (OVCAR-3) | GI50 (SNB-19) | GI50 (RPMI-8226) | GI50 (HCT-116) | GI50 (NCI/ADR-RES) | GI50 (SNB-75) | GI50 (SF-295) | GI50 (ACHN) | GI50 (EKVX) | GI50 (OVCAR-8)
O=C(/C=C/c1ccc(O)c(O)c1)NC(COC(=O)/C=C/c1ccc(O)c(O)c1)C(=O)O (stereo not given) | > 100 µM (inactive) | > 100 µM (inactive) | > 100 µM (inactive) | > 100 µM (inactive) | > 100 µM (inactive) | > 100 µM (inactive) | > 100 µM (inactive) | > 100 µM (inactive) | > 100 µM (inactive) | > 100 µM (inactive) | > 100 µM (inactive) | > 100 µM (inactive) | > 100 µM (inactive) | > 100 µM (inactive) | > 100 µM (inactive) | > 100 µM (inactive) | > 100 µM (inactive) | > 100 µM (inactive) | > 100 µM (inactive) | > 100 µM (inactive)
CC(NC(=O)c1ccccc1)(C(=O)O)C(=O)O | > 100 µM (inactive) | > 100 µM (inactive) | > 100 µM (inactive) | > 100 µM (inactive) | > 100 µM (inactive) | > 100 µM (inactive) | > 100 µM (inactive) | > 100 µM (inactive) | > 100 µM (inactive) | > 100 µM (inactive) | > 100 µM (inactive) | > 100 µM (inactive) | > 100 µM (inactive) | > 100 µM (inactive) | > 100 µM (inactive) | > 100 µM (inactive) | > 100 µM (inactive) | > 100 µM (inactive) | > 100 µM (inactive) | > 100 µM (inactive)
CN1CCN(c2ccc([N+](=O)[O-])c3no[n+]([O-])c23)CC1 | 1.36 µM (inactive) | 0.0817 µM (active) | 1.76 µM (inactive) | 0.0607 µM (active) | 0.0295 µM (active) | 0.032 µM (active) | 0.689 µM (active) | 0.207 µM (active) | 0.239 µM (active) | 0.141 µM (active) | 0.396 µM (active) | 0.914 µM (active) | 0.0628 µM (active) | 0.12 µM (active) | 0.161 µM (active) | 0.0103 µM (active) | 0.0424 µM (active) | 0.0395 µM (active) | 1.19 µM (inactive) | 0.24 µM (active)
CC1(C)CCCCCC(C)(CCCCCCCCCCCO)C1=O (stereo not given) | 17.9 µM (inactive) | 16.1 µM (inactive) | 17.2 µM (inactive) | 17.7 µM (inactive) | 17.3 µM (inactive) | 15.1 µM (inactive) | 15.5 µM (inactive) | 15.1 µM (inactive) | 17 µM (inactive) | 17.7 µM (inactive) | 16 µM (inactive) | 17.2 µM (inactive) | 20.9 µM (inactive) | 15.3 µM (inactive) | 14 µM (inactive) | 16.3 µM (inactive) | 15.7 µM (inactive) | 12.8 µM (inactive) | 17.6 µM (inactive) | 16.9 µM (inactive)
C=C(C)CCC1CCCCC(CN(C)C)C1=O (stereo not given) | > 100 µM (inactive) | 75 µM (inactive) | > 100 µM (inactive) | > 100 µM (inactive) | 10.7 µM (inactive) | > 100 µM (inactive) | > 100 µM (inactive) | > 100 µM (inactive) | > 100 µM (inactive) | > 100 µM (inactive) | > 100 µM (inactive) | > 100 µM (inactive) | > 100 µM (inactive) | > 100 µM (inactive) | > 100 µM (inactive) | > 100 µM (inactive) | > 100 µM (inactive) | > 100 µM (inactive) | > 100 µM (inactive) | > 100 µM (inactive)
COc1cc(NCc2ccc3n2-c2ccccc2OC3)cc(OC)c1OC | 21.1 µM (inactive) | 14.1 µM (inactive) | 46.5 µM (inactive) | 43.5 µM (inactive) | 12.7 µM (inactive) | 27 µM (inactive) | 16.1 µM (inactive) | 17.6 µM (inactive) | 16.8 µM (inactive) | 72.1 µM (inactive) | 28.6 µM (inactive) | 69 µM (inactive) | 7.89 µM (inactive) | 27.8 µM (inactive) | 4.25 µM (inactive) | 23.8 µM (inactive) | 23.8 µM (inactive) | 30.1 µM (inactive) | 9.71 µM (inactive) | 31 µM (inactive)
Oc1ccccc1/C=N/c1nc2cc3sc(/N=C/c4ccccc4O)nc3cc2s1 | > 100 µM (inactive) | 12.5 µM (inactive) | > 64.7 µM (inactive) | > 80.4 µM (inactive) | 9.77 µM (inactive) | 37.2 µM (inactive) | 69.7 µM (inactive) | 6.98 µM (inactive) | > 35.9 µM (inactive) | > 48.6 µM (inactive) | > 100 µM (inactive) | > 100 µM (inactive) | > 35.3 µM (inactive) | 38.9 µM (inactive) | > 100 µM (inactive) | > 78 µM (inactive) | > 54.3 µM (inactive) | 46.3 µM (inactive) | 51.4 µM (inactive) | > 100 µM (inactive)
CC(=O)OC(C)C1C2=C(C(=O)CC1(C)O)C(=O)c1c(ccc(-c3ccc4c(c3O)C(=O)C3=C(C4=O)C(C(C)OC(C)=O)C(C)(O)CC3=O)c1O)C2=O (stereo not given) | 3.15 µM (inactive) | 1.53 µM (inactive) | 5.97 µM (inactive) | 18.5 µM (inactive) | 1.56 µM (inactive) | 2.82 µM (inactive) | 2.24 µM (inactive) | 5.47 µM (inactive) | 3.35 µM (inactive) | 5.78 µM (inactive) | 2.2 µM (inactive) | 11.7 µM (inactive) | 0.483 µM (active) | 0.521 µM (active) | 15.8 µM (inactive) | 2.49 µM (inactive) | 11.6 µM (inactive) | 1.73 µM (inactive) | 4.36 µM (inactive) | 2.45 µM (inactive)
Cn1c2ccccc2c2ccc3c(c21)C(=O)c1ccc2c4ccccc4n(C)c2c1C3=O | > 100 µM (inactive) | 97.1 µM (inactive) | > 100 µM (inactive) | > 100 µM (inactive) | > 100 µM (inactive) | > 100 µM (inactive) | > 65.5 µM (inactive) | > 100 µM (inactive) | > 100 µM (inactive) | > 100 µM (inactive) | > 65 µM (inactive) | > 100 µM (inactive) | > 100 µM (inactive) | > 96.2 µM (inactive) | > 100 µM (inactive) | > 100 µM (inactive) | > 100 µM (inactive) | > 100 µM (inactive) | > 100 µM (inactive) | > 100 µM (inactive)
O=C(O)Cc1cccnc1 | > 100 µM (inactive) | > 100 µM (inactive) | > 100 µM (inactive) | > 100 µM (inactive) | > 100 µM (inactive) | > 100 µM (inactive) | > 100 µM (inactive) | > 100 µM (inactive) | > 100 µM (inactive) | > 100 µM (inactive) | > 100 µM (inactive) | > 100 µM (inactive) | > 100 µM (inactive) | > 100 µM (inactive) | > 100 µM (inactive) | > 100 µM (inactive) | > 100 µM (inactive) | > 100 µM (inactive) | > 100 µM (inactive) | > 100 µM (inactive)
